Measured values reported in patent US12708605B2, “Method of administering a hormone encapsulated by a hydrogel with a dual chamber syringe” (VITALTE LIFESCIENCES INC., priority 2024, dated 2026).

Assay: Saturation level of T in saline (T powder slurry)
Type: physicochemical
Procedure: The T powder was produced as a 2.5 mg/mL slurry in buffer to reach the near saturation point of T in the buffer. Samples of the T powder slurry were removed from only the top layer of the slurry fluid to avoid aspirating T particles in the slurry that may have precipitated at to the bottom. T pellets were collected directly from the vials in which they were stored. The 83 mg hydrogels containing 30% T were collected from Dulbecco's PBS buffer, rinsed, and dried. Each of the collected samples was then placed in a separate container of incubation media (saline in this instance) for the release studies.
Samples of the respective incubation media for the T powder, pelleted T, and hydrogel encapsulated T were collected at 4, 24, and 48 hours, with 2-3 replicates from each experimental group at each collection time. All collected samples were then diluted before assaying for released T in the incubation media. Initially, the samples collected at 4 hours were diluted 400-fold, while the samples collected at 24 and 48 hours were diluted 1600-fold. […] As a result, dilution testing was performed at dilutions of 1200, 1600, 1800, 2200, 2400, and 3000-fold. […]

## C[C@]12CC[C@H]3[C@@H](CCC4=CC(=O)CC[C@@]43C)[C@@H]1CC[C@@H]2O [T powder, Testosterone]
  approximate saturation level of T in saline: about 1.5 mg/L
